Source: US20090221559A1 (priority 2005, published 2009)
Like-named read-outs stand apart in the source and are kept apart here.

Tests used:
[1] = target: T1, HCV NS5B polymerase (His-tagged, C-terminal 21 amino acid deleted NS5B, HC-J4) (Hepatitis C virus genotype 1b, UniProt O92972); experiment: NS5b polymerase assay (biochemical RdRp assay, 3H-GTP incorporation, SPA beads); parameters: species or system HCV genotype 1b
T1 construct: The cDNA encoding NS5B amino acid 1-570 (HC-J4, genotype 1b); His tag (His6, from pET-21b) (C); made in house; host or cells: E. coli BL21 (DE3)
T1 sequence (O92972 2417-3000, looked up, stated change not applied): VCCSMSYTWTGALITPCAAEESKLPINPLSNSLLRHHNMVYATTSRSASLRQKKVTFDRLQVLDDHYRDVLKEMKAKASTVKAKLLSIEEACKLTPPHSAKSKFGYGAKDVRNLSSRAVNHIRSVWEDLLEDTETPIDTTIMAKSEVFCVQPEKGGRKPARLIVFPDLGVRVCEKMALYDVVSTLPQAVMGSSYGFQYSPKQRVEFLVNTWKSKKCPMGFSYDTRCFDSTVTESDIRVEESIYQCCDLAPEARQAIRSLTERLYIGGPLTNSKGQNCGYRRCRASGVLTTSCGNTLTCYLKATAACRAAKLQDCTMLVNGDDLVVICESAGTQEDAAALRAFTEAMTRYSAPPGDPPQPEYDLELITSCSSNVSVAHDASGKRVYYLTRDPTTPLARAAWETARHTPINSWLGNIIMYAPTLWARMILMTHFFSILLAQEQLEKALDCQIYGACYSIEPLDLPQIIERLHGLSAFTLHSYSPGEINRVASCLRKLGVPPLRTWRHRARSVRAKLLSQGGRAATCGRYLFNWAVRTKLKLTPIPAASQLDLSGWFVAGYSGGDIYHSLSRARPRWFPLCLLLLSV
Protocol: (§1) The compounds of formula (I) were tested for anti-HCV activity in an assay determining their activity against NS5b polymerase and in an HCV replicon assay
The cDNA encoding NS5B amino acid 1-570 (HC-J4, genotype 1b, pCV-J4L6S, genebank accession number AF054247) was subcloned into the Nhe I and Xho I restriction sites of pET-21b. Expression of the subsequent His-tagged C-terminal 21 amino acid deleted NS5B was performed as follows:
Following transformation in BL21 (DE3) competent cells, bacterial cells were grown in 22 liter LB/Amp media until to reach OD600=0.4-0.6. Protein expression was induced by addition of IPTG 0.4 mM, supplemented with 10 μM MgCl2, and incubated for 14-16 hrs at 20° C. Cells were harvested, resuspended in lysis buffer (20 mM Tris-HCl pH=7.5, 0.3 M NaCl, 10% glycerol, 0.1% NP40, 4 mM MgCl2, 14 mM beta-mercaptoethanol, with tablet of EDTA-free protease cocktail inhibitors) and lysed by sonification. The cell lysate was cleared by high-speed centrifugation (20K×g for 30 min), captured on Ni-NTA beads for 70 min at 4° C., and eluted with 25 mM Hepes pH 7.5, 0.5 M NaCl, 10% glycerol, 14 mM BME, 500 mM imidazole. The eluent was dialysed against 25 mM Hepes pH 7.5, 10% glycerol, 50 mM NaCl, 14 mM BME, after which the protein was further purified by heparin chromatography using the same buffer with 1 M NaCl for elution. Fractions containing pure protein were collected, dialyzed against storage buffer 25 mM Hepes pH=7.5, 300 mM NaCl, 10% glycerol, 14 mM BME), and flash-freezed in liquid nitrogen.
Measurement of HCV NS5B polymerization activity was performed by evaluating the amount of radiolabeled GTP incorporated by the enzyme in a newly synthesized RNA using heteropolymeric RNA template/primer. The highthroughput RdRp assay was carried out in 384-well plates using 200 nM enzyme, 0.1 μCi of ^3H GTP, 5 mM MgCl2, 600 nM GTP, 30 nM PolyC, 300 nM 5′-biotinylated oligo(rG13)/poly(rC) in 20 mM Tris pH 7.5, 21 mM KCl, 2.5 mM DTT, 16.7 mM NaCl and 0.17 mM EDTA. Test compounds were dissolved in dimethylsulfoxide. The test compounds were added to the preformed polymerase-template complex, and incubated at room temperature (RT) for 15 min before the addition of NTPs. The 30-μl reaction was terminated after 2 h at 25° C. upon addition of 30-μl PVT-SPA beads (Amersham Biosciences RPNQ0009, 5 mg/ml in 0.5 M EDTA).

[2] = system: HCV replicon RNA replication in Huh-7 luc/neo (Huh-Luc) cells; experiment: HCV replicon assay (stable replicon cell reporter assay, luciferase read-out); type: cell-based, HCV type 1b
Protocol: as §1
The compounds of the present invention were examined for activity in the inhibition of HCV RNA replication in a cellular assay. […] The cellular assay was based on a bicistronic expression construct, as described by Lohmann et al. (1999) Science vol. 285 pp. 110-113 with modifications described by Krieger et al. (2001) Journal of Virology 75: 4614-4624, in a multi-target screening strategy. In essence, the method was as follows.
The assay utilized the stably transfected cell line Huh-7 luc/neo (hereafter referred to as Huh-Luc). This cell line harbored an RNA encoding a bicistronic expression construct comprising the wild type NS3-NS5B regions of HCV type 1b translated from an Internal Ribosome Entry Site (IRES) from encephalomyocarditis virus (EMCV), preceded by a reporter portion (FfL-luciferase), and a selectable marker portion (neo^R, neomycine phosphotransferase). The construct was bordered by 5′ and 3′ NTRs (non-translated regions) from HCV type 1b. Continued culture of the replicon cells in the presence of G418 (neo^R) was dependent on the replication of the HCV RNA. The stably transfected replicon cells that expressed HCV RNA, which replicated autonomously and to high levels, encoding inter alia luciferase, were used for screening the antiviral compounds.
The replicon cells were plated in 384 well plates in the presence of the test and control compounds which were added in various concentrations. Following an incubation of three days, HCV replication was measured by assaying luciferase activity (using standard luciferase assay substrates and reagents and a Perkin Elmer ViewLux™ ultraHTS microplate imager). […] The inhibitory activity of the compound on luciferase activity was monitored on the Huh-Luc cells, enabling a dose-response curve for each test compound.

[3] = 200 nM enzyme, 3H-GTP incorporation, 2 h at 25° C., read-out: NS5B Polymerase Assay IC50
[4] = Huh-Luc cells, three days incubation, luciferase activity, read-out: Replicon Assay EC50
[5] = NS5B Polymerase Assay IC50 (μM)
[6] = Hepatitis C virus, Huh-7, 72 h, read-out: Replicon Assay EC50 (μM), Huh-Luc cells, incubation of three days, luciferase activity
[7] = NS5B Polymerase Assay IC50, 200 nM enzyme, 3H-GTP incorporation, 2 h at 25° C.
[8] = Hepatitis C virus, Huh-7, 72 h, read-out: Replicon Assay EC50, Huh-Luc cells, three days incubation, luciferase activity

SMILES	IC50 [1, 5] [µM]	EC50 [2, 6] [µM]	IC50 [1, 7] [µM]	EC50 [2, 8] [µM]	further results
CCCCOc1ccc(C2CC(=O)C3=C(C2)Nc2ccccc2N(C(=O)C(F)(F)F)C3c2ccccc2)cc1 (stereo not shown) [compound 171]					IC50 [1, 3]: > 42.7 µM; EC50 [2, 4]: 4.54 µM
Cc1ccc(C2C3=C(CC(c4ccc(Cl)cc4)CC3=O)Nc3ccccc3N2C(=O)C(F)(F)F)cc1 (stereo not shown) [compound 160]					IC50 [1, 3]: > 33.3 µM; EC50 [2, 4]: > 25 µM
O=C1CC(c2ccc(Cl)cc2)CC2=C1C(c1cccc(Cl)c1Cl)Nc1ccccc1N2 (stereo not shown) [compound 346]	> 42.7	24.6			
CN1c2ccccc2NC2=C(C(=O)CC(C)(C)C2)C1c1ccc(Cl)cc1Cl (stereo not shown) [compound 507, 11-(2,4-Dichlorophenyl)-2,3,4,5,10,11-hexahydro-3,3,10-trimethyl-1H-dibenzo[b,e][1,4]diazepin-1-one]	> 42.7	4.63			
CCC(=O)N1c2ccc(C(=O)c3ccccc3)cc2NC2=C(C(=O)CC(C)(C)C2)C1c1ccco1 (stereo not shown) [compound 261]					IC50 [1, 3]: > 42.7 µM; EC50 [2, 4]: 9.3 µM
O=C1CC(c2ccccc2)CC2=C1C(c1ccc(C(F)(F)F)cc1)Nc1ccccc1N2 (stereo not shown) [compound 343]	> 42.7	11			
COc1ccc(C2CC(=O)C3=C(C2)Nc2ccccc2NC3c2ccccc2C)cc1 (stereo not shown) [compound 381]	> 42.7	4.77			
CCC(=O)N1c2ccccc2NC2=C(C(=O)CC(c3ccc(C)cc3)C2)C1c1cccc(Cl)c1 (mixture of isomers) [compound 195]					IC50 [1, 3]: > 33.3 µM; EC50 [2, 4]: 6.9 µM
O=C1CC(c2ccccc2OCc2ccccc2)CC2=C1C(c1ccc(Cl)cc1Cl)Nc1ccccc1N2 (single isomer, unassigned) [compound 419, 3-(2-Benzyloxyphenyl)-11-(2,4-dichlorophenyl)-2,3,4,5,10,11-hexahydro-dibenzo[b,e][1,4]diazepin-1-one]	> 42.7	4.82			
CC1(C)CC(=O)C2=C(C1)Nc1ccccc1N(C(=O)Cc1ccccc1)C2c1cccc(Cl)c1 (stereo not shown) [compound 31]			> 42.7	6.36	
CCCCOc1ccc(C2C3=C(CC(C)(C)CC3=O)Nc3ccccc3N2C(=O)C(F)(F)F)cc1 (stereo not shown) [compound 115]			> 42.7	14.4	
CC1(C)CC(=O)C2=C(C1)Nc1ccccc1N(C(=O)c1ccccc1)C2c1cccs1 (stereo not shown) [compound 269]			> 33.3	19.6	
COc1cccc(C2Nc3ccccc3NC3=C2C(=O)CC(c2ccccc2)C3)c1OC (stereo not shown) [compound 347]	> 42.7	20.7			
O=C1CC(c2ccco2)CC2=C1C(c1ccc(Cl)cc1)Nc1ccccc1N2 (stereo not shown) [compound 413]	> 33.3	12			
CC(=O)N1c2ccccc2NC2=C(C(=O)CC(c3ccccc3)C2)C1c1ccc(C)cc1 (mixture of isomers) [compound 199]					IC50 [1, 3]: > 42.7 µM; EC50 [2, 4]: 11.5 µM
CC(=O)N1c2ccccc2NC2=C(C(=O)CC(C)(C)C2)C1c1ccccn1 (stereo not shown) [compound 281]			> 42.7	> 32	
COc1ccc(C2C3=C(CC(C)(C)CC3=O)Nc3ccccc3N2C(=O)Cc2ccc(Cl)cc2)cc1 (stereo not shown) [compound 12]			> 42.7	3.11	
COc1ccc(OC)c(C2C3=C(CC(C)(C)CC3=O)Nc3ccccc3N2C(=O)C(F)(F)F)c1 (stereo not shown) [compound 3]			> 42.7	> 32	

SMILES	IC50 [1, 5] [µM]	EC50 [2, 6] [µM]	IC50 [1, 7] [µM]	EC50 [2, 8] [µM]	further results
O=C1CC(c2ccccc2OCc2ccccc2)CC2=C1C(c1cccc(OCc3ccccc3)c1)Nc1ccccc1N2 (single isomer, unassigned) [compound 420, 3-(2-Benzyloxyphenyl)-11-(3-benzyloxyphenyl)-2,3,4,5,10,11-hexahydro-dibenzo[b,e][1,4]diazepin-1-one]	> 42.7	3.23			
CC1(C)CC(=O)C2=C(C1)Nc1ccccc1N(C(=O)c1ccccc1F)C2c1ccccc1OCc1ccccc1 (stereo not shown) [compound 27]			> 42.7	20.7	
CCOc1ccc(C2C3=C(CC(C)(C)CC3=O)Nc3ccccc3N2C(=O)C(F)(F)F)cc1 (stereo not shown) [compound 2]			> 42.7	26.5	
CCOc1cccc(C2Nc3ccccc3NC3=C2C(=O)CC(c2ccccc2)C3)c1 (stereo not shown) [compound 410]	> 33.3	22.6			
CC(=O)N1c2ccccc2NC2=C(C(=O)CC(C)C2)C1c1ccc(Cl)cc1Cl (stereo not shown) [compound 294, 10-acetyl-11-(2,4-dichlorophenyl)-3-methyl-2,3,4,5,10,11-hexahydro-1H-dibenzo[b,e][1,4]diazepin-1-one]			10.4	42	
COc1ccc(C2CC(=O)C3=C(C2)Nc2ccccc2N(C(=O)C(F)(F)F)C3c2ccc(Cl)cc2)cc1 (mixture of isomers) [compound 210]					IC50 [1, 3]: > 33.3 µM; EC50 [2, 4]: 12.1 µM
CCOc1cc(C2C3=C(CC(C)(C)CC3=O)Nc3ccccc3N2C(C)=O)ccc1O (stereo not shown) [compound 121]			> 42.7	> 32	
COc1ccc(OC)c(C2C3=C(CC(C)(C)CC3=O)Nc3ccccc3N2C(=O)c2ccccc2)c1 (stereo not shown) [compound 72]			> 42.7	23.6	
Cc1ccc(C2CC(=O)C3=C(C2)Nc2ccccc2N(C(=O)C(F)(F)F)C3c2cccc(Cl)c2)cc1 (stereo not shown) [compound 230]					IC50 [1, 3]: > 33.3 µM; EC50 [2, 4]: 19.6 µM
Cc1ccc(C2C3=C(CC(c4ccccc4F)CC3=O)Nc3ccccc3N2C(=O)c2ccccc2)cc1 (stereo not shown) [compound 166]					IC50 [1, 3]: > 42.7 µM; EC50 [2, 4]: 3.98 µM
CC(=O)N1c2ccccc2NC2=C(C(=O)CC(C)(C)C2)C1c1cccc(F)c1 (stereo not shown) [compound 104]			> 42.7	> 32	
CC1(C)CC(=O)C2=C(C1)Nc1ccccc1N(C(=O)Cc1ccccc1)C2c1ccc(Cl)cc1 (stereo not shown) [compound 20]			> 42.6	6.58	
CCCCOc1ccccc1C1Nc2ccccc2NC2=C1C(=O)CC(c1ccccc1)C2 (stereo not shown) [compound 338]	> 42.7	16.9			
COc1ccc(C2CC(=O)C3=C(C2)Nc2ccccc2NC3c2ccc(OCc3ccccc3)cc2)cc1 (stereo not shown) [compound 388]	> 42.7	6.35			
CC1(C)CC(=O)C2=C(C1)Nc1ccccc1N(C(=O)c1ccccc1)C2c1ccccc1Cl (stereo not shown) [compound 70]			> 42.7	14.6	
COc1cccc(C2Nc3ccccc3NC3=C2C(=O)CC(c2ccc(Cl)cc2)C3)c1OC (stereo not shown) [compound 348]	29.6	4.48			
CC(=O)N1c2ccccc2NC2=C(C(=O)CC(C)(C)C2)C1c1ccc(F)cc1F (stereo not shown) [compound 146, 10-acetyl-11-(2,4-difluorophenyl)-3,3-dimethyl-2,3,4,5,10,11-hexahydro-1H-dibenzo[b,e][1,4]diazepin-1-one]			2.02	23.9	
